Results from patent publication US7348153B2, “Method for identifying and designing immunogenic peptides” (Health Research, Inc., priority 2004, dated 2008).
Marks after values point to notes of the source that are not given here.

How the values were obtained:
Assay type in all cases: cell-based, human
[1] = tested on: A375SM melanoma cells; assay: 51Cr release CTL assay against A375SM melanoma cells; details: for lysis of A375SM cells by peptide-stimulated PBMCs: immunized HLA-A2+ patient 1
Experimental: NP-, I-100, and I-102 on the abscissa indicate corresponding CTL effectors. NP-CTL indicates CTL stimulated by T2 cells and IL-2 without addition of peptides. […] The E:T ratio was 20:1 in a 20 h ^51Cr release assay. FIG. 6C depicts the kinetics of A375SM melanoma cell lysis by NP-CTL (∘), I-100-CTL (●), and I-102-CTL (▴). CTL were incubated with target cells for up to 20 h.
(§1) To determine the effects of the immunization with […] on activation of melanoma cell-lytic CTLs, we compared the responses of immunized HLA-A2^+ patients 1 and 6 with that of nonimmunized HLA-A2^+ patient 4. As specificity and restriction control we analyzed the responses of nonimmunized HLA-A2^− patients 3 and 5. All of the CTLs were tested for their ability to lyse T2 cells pulsed with the stimulating peptide and A375sm melanoma cells. Lymphocytes collected after three rounds of peptide stimulation were tested for their ability to lyse ^51Cr-labeled targets as described previously (Fisk, et al. J Exp Med 1998;181:2109-17; Murray, et al. Clin Cancer Res 2002;11:3407-18). […] Cold target inhibition of tumor cell lysis experiments was performed as described (Murray, et al. Clin Cancer Res 2002;11:3407-18).
To determine whether in vitro stimulation with peptides generated CTLs that recognized epitopes on HMW-MAA^+/HLA-A2^+ melanoma cells, PBMCs from immunized HLA-A2^+ patients 1 and 6 were stimulated with I-100 and 1-102 peptides and then tested for their ability to lyse A375SM melanoma cells. […] Therefore, these effectors were designated as I-100 CTL and I-102 CTL, respectively.

[2] = tested on: T2 cells pulsed with peptide; assay: 51Cr release CTL assay against peptide-pulsed T2 cells; details: for lysis of T2-I-100 by peptide-stimulated CTL: immunized HLA-A2+ patients 1 and 6, E:T 30:1, 4 hour 51Cr release; for lysis of T2 cells pulsed with the stimulating peptide by peptide-stimulated CTL: nonimmunized HLA-A2+ patient 4, E:T 30:1, 4 hour; for lysis of T2-I-100 and T2-I-102 targets by peptide-stimulated lymphocytes: nonimmunized HLA-A2− patient 5
Excerpt: FIGS. 5A-5E are graphical representations of cytolytic activity of NP, I-100 and I-102-CTL from HLA-A2 immunized patients # 1 and # 6 (FIGS. 5A and 5B, respectively) and from HLA-A2, non-immunized patient # 4 (FIG. 5C) against T2-NP (▪) and T2-I-100 (□) targets. FIG. 5D depicts lytic activity of NP- and I-102-CTL from HLA-A2^− patient #3 against T2-NP (▪) and T2-I-100 (□) targets. FIG. 5E depicts CTL lysis by NP-, I-100-, and I-102-CTL effectors from […] patient #5 against T2-I-100 targets. The E:T ratio was 30:1 in a 4 hour 51Cr release assay; bars, ±S D.
For proliferation assays, PBMCs were cultured in tetra-triplicate in 96-well flat-bottomed microtiter plates (Costar Corp., Cambridge, Mass.) at the concentration of 2×10^5 cells/well in 100 μl of complete RPMI 1640 containing L-glutamine and 10% fetal bovine serum. Peptides I-100 and I-101 were added at 5, 25, and 50 μg/ml in serum-free RPMI 1640 up to a total volume of 200 μl. PBMCs were cultured for 6 days at 37° C. in a 5% CO2 atmosphere before addition of tritiated thymidine at a concentration of 1 μCi/well. Results are expressed as cpm of tritiated thymidine incorporated and as a stimulation index (Hogan et al. J Immunol 1989; 142:2097-104). The latter is the average cpm of lymphocytes cultured with peptide divided by the average cpm of lymphocytes cultured without peptide. […] Peptide-specific T cells were propagated by adding recombinant interleukin (IL)2 (90 IU/ml; Biosource International, Camarillo, Calif.) to PBMCs that had been cultured for 96 h at 37° C. with peptides. After 5 additional days of culture at 37° C. cells were washed, replated, and restimulated at a 1:1 stimulator to responder ratio with irradiated (30 Gy) autologous PBMC stimulators and peptides at concentrations of 5, 25, and 50 μg/ml. IL-2 was added after 96 h, and cells were cultured for an additional 5 days at 37° C., after which they were restimulated for an additional 10 days at 37° C. Lymphocytes stimulated over three cycles were collected and used as effectors in a cytotoxicity (CTL) assay.
as §1

[3] = tested on: PBMCs from melanoma patients; assay: PBMC proliferation assay (tritiated thymidine incorporation); details: for stimulation index: both peptides
Experimental: For proliferation assays, PBMCs were cultured in tetra-triplicate in 96-well flat-bottomed microtiter plates (Costar Corp., Cambridge, Mass.) at the concentration of 2×10^5 cells/well in 100 μl of complete RPMI 1640 containing L-glutamine and 10% fetal bovine serum. […] PBMCs were cultured for 6 days at 37° C. in a 5% CO2 atmosphere before addition of tritiated thymidine at a concentration of 1 μCi/well. Results are expressed as cpm of tritiated thymidine incorporated and as a stimulation index (Hogan et al. J Immunol 1989; 142:2097-104). The latter is the average cpm of lymphocytes cultured with peptide divided by the average cpm of lymphocytes cultured without peptide. […] After 5 additional days of culture at 37° C. cells were washed, replated, and restimulated at a 1:1 stimulator to responder ratio with irradiated (30 Gy) autologous PBMC stimulators and peptides at concentrations of 5, 25, and 50 μg/ml. IL-2 was added after 96 h, and cells were cultured for an additional 5 days at 37° C., after which they were restimulated for an additional 10 days at 37° C. Lymphocytes stimulated over three cycles were collected and used as effectors in a cytotoxicity (CTL) assay.

[4] = tested on: PBMCs from melanoma patients; assay: IFN-γ and IL-10 release by peptide-stimulated PBMC (double sandwich ELISA); details: for IL-10 levels after restimulation / IFN-γ levels: HLA-A2+ patient 6, 2° STIM, 25 μg/ml; for IFN-γ levels: comparison between peptides (P>0.05); for IFN-γ:IL-10 ratio: 2° STIM; for average IFN-γ levels after 2° STIM: peptides 25 μg/ml
Experimental: Interaction of T cells with Ag can induce a few cycles of division resulting in Ag-primed uncommitted T cells or can induce T cells to differentiate and gain effector function. The effector function is best characterized by the ability of Ag-stimulated T cells to secrete Th1 cytokines and to mediate lysis of specific targets. To determine whether T cells from immunized patients acquired cytokine effector function, IFN-γ and IL-10 were measured in supernatants harvested from PBMC cultures stimulated with I-100 and I-102 peptides. To measure cytokine release, supernatants were collected at 24, 48, and 72 h after primary and secondary stimulation with 5, 25, and 50 μg/ml of peptides and stored frozen at −20° C. IFN-γ and IL-10 levels were measured by a double sandwich ELISA using the corresponding kits supplied by Biosource International. Assays were calibrated with human recombinant IFN-γ and IL-10 to detect each cytokine in a range of 15-1000 pg/ml.
IL-10 was assayed instead of IL-4 as a representative Th2 cytokine, because the PBMCs used as responders were from patients with melanoma. Therefore, they might contain regulatory cells. Patient 6 had supernatants saved from two separate experiments. […] Because after priming, all of the stimulated PBMCs were expanded in IL-2, we determined the effect of culturing PBMCs in IL-2 on IFN-γ induction.

[5] = HLA-A2+ patients 1, 2 and 6 immunized with MELIMMUNE
[6] = HLA-A2− patients 3, 5, 9 and 10 not immunized
[7] = patient 1, HLA-A2 phenotype/immunization +/+, 1° STIM up to 6 days
[8] = patient 2, +/+, 1° STIM up to 6 days
[9] = patient 3, HLA-A2 −, 1° STIM up to 6 days
[10] = patient 4, +/−, 1° STIM up to 6 days
[11] = patient 5, HLA-A2 −, 1° STIM up to 6 days
[12] = patient 6, +/+, 1° STIM up to 6 days
[13] = patient 7, −/+, 1° STIM up to 6 days
[14] = patient 8, −/+, 1° STIM up to 6 days
[15] = patient 9, −/−, 1° STIM up to 6 days
[16] = patient 10, −/−, 1° STIM up to 6 days
[17] = PBMCs from HLA-A2+ patient 6 and four HLA-A2− patients, preliminary experiments

Row | Substance | lysis of A375SM cells by peptide-stimulated PBMCs [1] | lysis of T2-I-100 by peptide-stimulated CTL [2] | lysis of T2 cells pulsed with the stimulating peptide by peptide-stimulated CTL [2] | lysis of T2-I-100 and T2-I-102 targets by peptide-stimulated lymphocytes [2] | stimulation index [3, 5] | stimulation index [3, 6] | S.I. (stimulation index) [3, 7] | tritiated thymidine incorporated [3, 7] | S.I. (stimulation index) [3, 8] | S.I. (stimulation index) [3, 9] | S.I. (stimulation index) [3, 10] | S.I. (stimulation index) [3, 11] | S.I. (stimulation index) [3, 12] | tritiated thymidine incorporated [3, 12] | S.I. (stimulation index) [3, 13] | tritiated thymidine incorporated [3, 13] | S.I. (stimulation index) [3, 14] | tritiated thymidine incorporated [3, 14] | S.I. (stimulation index) [3, 15] | tritiated thymidine incorporated [3, 15] | other results
1 | LLQLGYSGRL (designed peptide) [Peptide I-102] | effectively lysed A375SM cells | to a significantly greater extent than control targets T2-NP | lysed T2-I-102 | unable to specifically lyse | 2.7±0.7 | 1.2±0.4 | (3.3) | 1519 ± 92^a cpm | (3.0) | (1.4) | (1.7) | (2.0) | (2.8) | 1464 ± 53^a cpm | (1.2) | 755 ± 56 cpm | (1.2) | 650 ± 31 cpm | (0.9) | 425 ± 40 cpm | increase of lysis of A375SM cells from 5 h to 20 h ([1]; peptide-stimulated CTL, kinetics of lysis): 59%; lysis of T2-I-102 targets by peptide-stimulated CTL ([2]; nonimmunized HLA-A2− patient 3, compared with T2-NP): no specific lysis; S.I. (stimulation index) [3, 16]: (1.0; tritiated thymidine incorporated [3, 16]: 200 ± 20 cpm; IL-10 levels after restimulation [4]: 212 ± 24 pg/mL; IFN-γ levels [4]: similar; IFN-γ:IL-10 ratio ([4]; HLA-A2+ patients): 3.96; IFN-γ:IL-10 ratio ([4]; HLA-A2− patients): 0.97; IL-10 after 2° STIM ([4]; PBMCs from HLA-A2+ patients): 155.7 ± 36.3 pg/mL; average IFN-γ levels after 2° STIM ([4]; PBMCs from HLA-A2+ patients): 616.1 ± 86.3 pg/mL; IL-10 after 2° STIM ([4]; PBMCs from HLA-A2− patients): 61.1 ± 25 pg/mL
2 | LLVLLYSKL (mouse; mAb MF11-30) [Peptide I-100] | effectively lysed A375SM cells | to a significantly greater extent than control targets T2-NP | did not lyse T2-I-100 | unable to specifically lyse | 2.7±0.7 | 1.2±0.4 | (2.5) | 1123 ± 240^a cpm | (3.3) | (1.1) | (1.5) | (1.7) | (3.1) | 1793 ± 58^a cpm | (1.1) | 652 ± 77 cpm | (0.9) | 490 ± 54 cpm | (0.7) | 334 ± 26 cpm | tritiated thymidine incorporated [3, 9]: 655 ± 51 cpm; S.I. (stimulation index) [3, 16]: (0.9); tritiated thymidine incorporated [3, 16]: 184 ± 12 cpm; IL-10 levels after restimulation [4]: 86 ± 11 pg/mL; IFN-γ levels [4]: similar; IFN-γ and IL-10 levels ([4]; HLA-A2+ patient 6 and HLA-A2− patient 7, after 1° STIM): low; IFN-γ:IL-10 ratio ([4]; HLA-A2+ patients): 3.96; IFN-γ:IL-10 ratio ([4]; HLA-A2− patients): 0.97; IL-10 after 2° STIM ([4]; PBMCs from HLA-A2+ patients): 155.7 ± 36.3 pg/mL; average IFN-γ levels after 2° STIM ([4]; PBMCs from HLA-A2+ patients): 616.1 ± 86.3 pg/mL; IL-10 after 2° STIM ([4]; PBMCs from HLA-A2− patients): 61.1 ± 25 pg/mL
3 | LLQLYSGRL (human; HMW-MAA) [Peptide I-101] | – | – | – | – | – | – | – | – | – | – | – | – | – | – | – | – | – | – | – | – | stimulation of proliferation [3, 17]: did not stimulate; stimulation of IFN-γ and IL-10 secretion [4, 17]: did not stimulate
4 | E71: inactive HLA-A2 epitope from HER-2/neu protein, HER-2 (828-836) (QIAKGMSYL; UniProt P04626 828-836, looked up, fragment) [Peptide E71, reference compound] | – | – | – | – | – | – | – | – | – | – | – | – | – | – | – | – | – | 685±103 cpm | – | – | tritiated thymidine incorporated ([3]; lymphocytes from HLA-A2+ immunized patients 1, 2 and 6 (NP=353±84 cpm)): 411±190 cpm
